This is an account of results in patent publication US7011948B2, “Detection of ligand-antiligand complex formation by electromagnetically detectable bulk property measurement” (MDS Sciex, priority 2002, dated 2006).

In assay [1] the target is T1, RNase (Bos taurus, UniProt P61823).
T1 sequence (P61823 27-150): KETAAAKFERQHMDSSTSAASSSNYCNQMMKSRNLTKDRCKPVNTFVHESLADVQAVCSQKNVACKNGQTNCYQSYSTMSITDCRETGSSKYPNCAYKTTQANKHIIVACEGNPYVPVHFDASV
Briefly: Isothermal Titration Calorimetry (ITC) binding to RNase. From the text: Table 2, below, provides the chemical structure of each of the three CMP ligands used in this experiment and a comparison of their dissociation constants (KD) binding to RNase as determined by Isothermal Titration Calorimetry (ITC) and Multipole Coupling Spectroscopy (MCS).
(Isothermal titration calorimetry measures the heat released or taken up as one component is titrated into another.)

Assay [2] concerns the target T2, Ribonuclease A (RNase A) (Bos taurus, UniProt P61823).
T2 construct: purchased Sigma (St. Louis, Mo.) R5503
T2 sequence (P61823 27-150): T1 sequence (P61823 27-150)
Briefly: Multipole Coupling Spectroscopy (MCS) binding titration of CMP ligands with RNase A. To be noted: for binding strength to RNase A in words: summary of ITC and MCS results. The text has this:
Given the equation εtot=α+βL0+γg(A0,L0,KD), it can be seen that εtot is a function of L0 and KD (F(L0,KD)). εtot is a measured value and L0 is known. If KD is fixed, εtot can be predicted from L0. Then, KD can be adjusted until the predicted and measured values of εtot are as close as possible according to a nonlinear least squares analysis defined as follows: {(^1L0,^1εtot)|i=1, 2, . . . n} measurements find KD such that • Σ[^1εtot−F(^iLO,KD)]^2 is a minimum.
This formula defines the objective function for this nonlinear least squares problem. The problem is called a least squares problem because the objective function is the sum of the squares of the residuals (differences) between the measurements and the model predictions. The solution is the value of KD that minimizes the objective function. FIG. 7 depicts a plot showing an example of this objective function. There are many ways to minimize the objective function. Any standard function optimization algorithm, such as the steepest descent algorithm, can be used. Some objective function minimization methods take advantage of the particular structure of this objective function, for example the conjugate gradient method and the Levenberg-Marquardt method, and their use may be preferred in many instances. In this way, the strength of the ligand/antiligand bond can be quantified.
Materials. Ribonuclease A, (RNase A, catalogue # R5503)), cytidine 2′-monophosphate free acid (2′-CMP, catalogue # C7137), cytidine 3′-monophosphate free acid (3′-CMP, catalogue # C1133), cytidine 5′-monophosphate free acid (5′-CMP, catalogue # C1131), sodium chloride (catalogue # S7653), magnesium chloride (catalogue # M2670), Bis-Tris free base (catalogue # B7535), and Bis-Tris hydrochloride salt (catalogue # B6032) were purchased from Sigma (St. Louis, Mo.). The surfactant NP-40 (catalogue # 492015) was purchased from Calbiochem (San Diego, Calif.). These reagents were used without further purification. All solutions were prepared using milliQ water. These experiments were performed in a pH 6.0 150 mM BIS-TRIS buffer containing 10 mM sodium chloride, 10 mM magnesium chloride, and 0.005% v/v NP-40. Preparation of Sample Solutions. The protein solution was prepared by dissolving RNase A in the Bis-Tris buffer to give a final concentration of 1 mM protein; no subsequent dialysis was performed. The ligand solutions were prepared by dissolving 2′-CMP, 3′-CMP or 5′-CMP in the 1 mM RNase A solution to give a final concentration of 4 mM ligand. A series of samples which formed the basis of the ligand binding curve were prepared by mixing various ratios of the above two solutions as outlined in Table 1. Multipole Coupling Spectroscopy (MCS). […] The flow cell (a polyimide tube with an 0.0285″ I.D. and an 0.0305″ O.D. from HV Technologies, Trenton, Ga.) was mounted on the top of the coaxial resonating detector such that only the wall of the tubing separated the detector and the fluidic sample. The AFM was used to draw the fluidic samples into the detection region of the flow cell. The network analyzer settings used were S11 reflection, log magnitude, linear frequency sweep in stepped mode, 401 points, IF bandwidth of 30 Hz, power of −5 dBm, and no cable calibration was applied.
To set up the instrument to measure the data of a binding titration, the protein solution was first introduced to the flow cell of the coaxial resonating fixture and the fixture was coupled by adjusting the size of the gap until the desired reflection was achieved (approximately −30 dBm). The co-axial resonator has a sliding mechanism composed of a single dimension translation stage and a mechanical motor (Picomotor Driver from New Focus Inc., San Jose, Calif.) to adjust the gap size separating the pieces of coax such that the desired MCS reflection is achieved. Each of the remaining fluidic samples described in Table 1, below, were sequentially measured. […]

Assay [3] has as its target T3, RNase A (Bos taurus, UniProt P61823).
T3 construct: purchased Sigma
T3 sequence (P61823 27-150): T1 sequence (P61823 27-150)
The assay can be described thus: Refractive index binding titration of 2′CMP with RNase A. To be noted: 1 mM RNase; 150 mM Bis-Tris buffer pH 6; 2′CMP up to 4 mM. On the procedure: As verification of the generality of the inventive technique in bulk property situations other than the measurements involving permittivity, an experiment was carried out by measuring refractive index as the bulk property of a test solution. The binding assay used was one of the ones shown in Example 1, namely binding of RNase A to the RNase inhibitor 2′CMP. The refractometer used to measure the refractive index of the samples was a Wyatt Technologies Optilab DSP refractometer, calibrated using sodium chloride solutions as described in the manufacturer's instructions. RNase (Sigma) was dissolved in a buffer containing 150 mM Bis-Tris, 10 mM NaCl, 10 mM MgCl2, 0.005% […], pH 6, to provide 1 mM RNase. A portion of this solution was fed into the reference cell of the refractometer, and the instrument was left standing until the readout had stabilized. The test ligand, 2′CMP, was dissolved to 4 mM in a portion of the 1 mM RNase solution, and a titration was prepared to produce the following concentrations.
Samples were then loaded into the Optilab sample cell using a syringe and measured in the following order: […]
The refractometer was zeroed using a 1 mM RNase solution. […] The refractive index change relative to the reference cell was calculated using the software and plotted against the concentration of 2′CMP.

Where [4] appears, read: 27° C., 1 mM RNase A, pH 6.0 Bis-Tris buffer, 1.3 GHz, vs ligand concentration, read-out: KD from fit of absolute permittivity values (e′ real part of permittivity), FIG. 11A.
The mark [5] stands for this setting: 27° C., 1 mM RNase A, pH 6.0 Bis-Tris buffer, vs ligand-to-protein ratio, read-out: KD from fit of change in impedance (Zi, imaginary part of impedance), FIG. 11E.
Setting [6] is: 27° C., 1 mM RNase A, pH 6.0 Bis-Tris buffer, vs ligand-to-protein ratio, read-out: MCS KD from fit of change in permittivity (e′ real part of permittivity), FIG. 11C.
[7] abbreviates: 27° C., 1 mM RNase A, pH 6.0 Bis-Tris buffer, vs ligand-to-protein ratio.

The term Kd denotes the free concentration of one partner at which half of the binding sites on the other are occupied at equilibrium, for simple one-to-one binding.

Entries after “also recorded” stand apart in the source; their conditions may differ. Like-named read-outs stand apart in the source and are kept apart here.

On to `Nc1ccn([C@@H]2O[C@H](CO)[C@@H](O)[C@H]2OP(=O)(O)O)c(=O)n1` [2′-CMP, cytidine 2′-monophosphate free acid], for which the Kd came out at 6.3 µM in assay [1], 10 µM in assay [2] (setting [4]), 11 µM in assay [2] (setting [5]) and 10 µM in assay [2] (setting [6]). For the same compound, the “binding strength to RNase A in words” value in assay [2] was “relatively strong binder”. In addition, the “refractive index change vs concentration plot (FIG. 12), binding detection” value in assay [3] is “deviates significantly from linearity, indicating that binding has taken place”.

As to `Nc1ccn([C@@H]2O[C@H](CO)[C@@H](OP(=O)(O)O)[C@H]2O)c(=O)n1` [3′-CMP, cytidine 3′-monophosphate free acid], the Kd was 75 µM in assay [1], 130 µM in assay [2] (setting [4]), 75 µM in assay [2] (setting [5]) and 130 µM in assay [2] (setting [6]). The “binding strength to RNase A in words” value in assay [2] is on record as “relatively weak binder”.

As to `Nc1ccn([C@@H]2O[C@H](COP(=O)(O)O)[C@@H](O)[C@H]2O)c(=O)n1` [5′-CMP, cytidine 5′-monophosphate free acid], in assay [1], the “ITC KD” value is “non-binding”. For the same compound, in assay [2] (27° C., 1 mM RNase A, pH 6.0 Bis-Tris buffer, 1.3 GHz, vs ligand concentration), the “KD from fit of absolute permittivity values (e′ real part of permittivity), FIG. 11A” value is “No suitable curve fit was achieved”. For the same compound, in assay [2] (setting [7]), the “KD from fit of change in impedance (Zi, imaginary part of impedance), FIG. 11E” value is recorded as “No suitable curve fit was achieved” and the “MCS KD from fit of change in permittivity (e′ real part of permittivity), FIG. 11C” value is recorded as “No suitable curve fit was achieved; also recorded: non-binding”. In addition, in assay [2], the “binding strength to RNase A in words” value was “unmeasurably weak”.
